Experiments:
[1] = Solubility in ethanol / DMSO; type: physicochemical
FVIIa = FVIIa inhibition assay; type: biochemical; details: up to 100 μM, absorbance at 405 nm
Method: (§1) For the FVIIa, FXa and thrombin inhibition assays described below, an inhibition assay buffer containing 50 mM Tris, 5 mM CaCl2, 150 mM NaCl, 0.1% Tween 20, and 0.1% BSA (albumin, bovine, Sigma fraction V (Sigma)) at about pH 8.0 was used 2. For each of the inhibition assays, the total reaction volume was 100 μl and the assays were performed in 96-well plates.
For the FVIIa inhibition assay, about 30 μl of inhibition assay buffer, 25 μl of 20 nM recombinant FVIIa (Walt Kiesel, University of New Mexico), and 10 μl of one of a series of dilutions of ZG-1400a were added to plate wells. The ZG-1400a was prepared in 10% DMSO and tested using half-log dilutions, starting at a final assay concentration of 100 μM and diluting to 1 nM. A negative (no inhibition) control contained 30 μl inhibition assay buffer, 25 μl of 20 nM FVIIa, and enough DMSO to give a 1% final DMSO concentration.
The test and control wells were incubated for about 10 min at room temperature. After incubation, 25 μl of 20 nM tissue factor (Walt Kiesel, University of New Mexico) was added to the wells and incubated for a second 10 min period at room temperature. […]
(§2) This determination was made by reading absorbance at 405 nm on a ThermoMax microplate reader.

Factor Xa (FXa) = assay: Factor Xa inhibition assay; type: biochemical; details: up to 100 μM, absorbance at 405 nm
Method: as §1
About 30 μl inhibition assay buffer, 50 μl of 10 nM FXa and 10 μl of one of a series of dilutions of ZG-1400a were added to plate wells. The ZG-1400a was prepared in 10% DMSO and tested using half-log dilutions, starting at a final assay concentration of 100 μM and diluting to 1 nM. A negative (no inhibition) control contained 30 μl inhibition assay buffer, 50 μl of 10 nM FXa, and enough DMSO to give a 1% final DMSO concentration.
The test and control wells were incubated for about 10 min at room temperature. After the incubation period, 10 mM N-α-benzyloxycarbonyl-D-arginine-L-glycyl-L-arginyl-p-nitroanilide-dihydrochloride (S2765 substrate, Kabi) was added to each well.
as §2

SMILES	solubility [1]	inhibition of FVIIa activity (FVIIa)	inhibition of FXa activity (Factor Xa (FXa))
CC=CCC=CCCC(=O)C1OC1C(N)=O (stereo not drawn) [Cerulenin, 2,3-epoxy-4-oxo-7,10-dodecadienamide]	soluble in ethanol, but not DMSO	–	–
C[C@@H]1CCC/C=C\C(=O)Cc2cc(O)cc(O)c2C(=O)O1 [ZG-1400, R(-) enantiomer of cis-resorcylide]	–	not even the highest concentration of ZG-1400a assayed (100 μM) inhibited FVIIa activity	not even the highest concentration of ZG-1400a assayed (100 μM) inhibited FXa activity

— patent US5710174A, “Factor XIIIA inhibitor” (Zymo Genetics, Inc., priority 1995, dated 1998)
